In the assay the target is T1, mouse VISTA (mVISTA) (Mus musculus, UniProt Q9D659).
T1 construct: expressed in transfected cells; host or cells: Human embryonic kidney 293T cells
T1 sequence (Q9D659 33-308): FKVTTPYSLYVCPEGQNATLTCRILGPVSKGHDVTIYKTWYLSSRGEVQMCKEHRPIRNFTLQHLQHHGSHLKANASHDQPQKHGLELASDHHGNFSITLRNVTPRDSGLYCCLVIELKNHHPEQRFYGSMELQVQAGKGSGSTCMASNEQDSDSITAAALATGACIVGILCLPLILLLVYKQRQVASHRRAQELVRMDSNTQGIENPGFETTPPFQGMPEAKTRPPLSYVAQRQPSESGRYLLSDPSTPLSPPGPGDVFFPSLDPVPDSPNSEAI
The assay is described as follows: Cell-Based Binding High-Content Assay For mVISTA (HC CBA mVISTA). In short, it runs like this:
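Read-out: Alexa 647–streptavidin signal imaged on fixed, Hoechst-stained mVISTA-293T cells, with IC50 taken from a four-parameter logistic curve. Compounds competed with 2 nM biotinylated peptide for 30 min at room temperature, tested under both no-wash and wash (1 h compound, media exchange, 1 h) formats.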

The mark [1] stands for this setting: 293T cells expressing mouse VISTA, competition with biotinylated peptide (2 nM), read-out: HC CBA mVISTA IC50.

Each structure is given as a SMILES string. Read-outs that look alike come from different tables or passages of the source. Starred links: 1 amine or outer side, 2 acyl side, 3 side chain; linkers in the order of their positions; H or OH if unused. Positions of bridges follow the written chain, without caps; N, C: chain ends. Non-standard residues stand in square brackets, D forms with d. Residues, ends and D or L forms follow the SMILES beside them. ξ: configuration not given here. γGlu = O=C(O)[C@H](CCC(=O)[*:2])N[*:1]; 2Nal = N[C@@H](Cc1ccc2ccccc2c1)C(=O)O; βAsp = O=C(O)[C@H](CC(=O)[*:2])N[*:1]; NMeThr(3ξ) = CN[C@H](C(=O)O)C(C)O; Ahp(2) = CCCCC[C@H](N)C(=O)O; NMeNle = CCCC[C@H](NC)C(=O)O; Tle = CC(C)(C)[C@H](N)C(=O)O; NMeS = CN[C@@H](CO)C(=O)O; NHexGly = CCCCCCNCC(=O)O; Nle = CCCC[C@H](N)C(=O)O; Orn = NCCC[C@H](N)C(=O)O; Aun = NCCCCCCCCCCC(=O)O; AEEA = NCCOCCOCC(=O)O

As usually defined, the IC50 is the concentration at which inhibition is half-maximal. As to `CCCCCCN1CC(=O)N[C@@H](Cc2ccc(O)cc2)C(=O)N[C@@H](CC(C)C)C(=O)N[C@@H](CC(N)=O)C(=O)N[C@@H](CCCN)C(=O)N(C)[C@@H](CCCC)C(=O)N[C@@H](CCCCC)C(=O)N2CCC[C@H]2C(=O)N[C@@H](C(C)(C)C)C(=O)N[C@@H](C(C)C)C(=O)N[C@H](C(=O)NCCOCCOCC(=O)N[C@@H](CCC(=O)NCCOCCOCC(=O)NCCCCCCCCCCC(=O)O)C(=O)O)CSCC(=O)N[C@@H](Cc2ccccc2)C(=O)N[C@@H](Cc2c[nH]c3ccccc23)C(=O)N[C@@H](CC(=O)O)C1=O` [compound 2282] ({CH2CO}-FWD[NHexGly]YLN[Orn][NMeNle][Ahp(2)]P[Tle]VC[AEEA][γGlu][AEEA][Aun]-OH; thioether N-14), the IC50 (read-out: HC CBA mVISTA IC50) came to 0.0349 µM.

Consider `CCCCCCN1CC(=O)N[C@@H](Cc2ccc(O)cc2)C(=O)N[C@@H](CC(C)C)C(=O)N[C@@H](CC(N)=O)C(=O)N[C@@H](CCCNC(=N)N)C(=O)N(C)[C@@H](C(C)O)C(=O)N[C@@H](CCCCC)C(=O)N2CCC[C@H]2C(=O)N[C@@H](C(C)(C)C)C(=O)N[C@@H](CC(=O)O)C(=O)N[C@H](C(=O)NCCOCCOCC(=O)N[C@@H](CCC(=O)NCCOCCOCC(=O)NCCCCCCCCCCC(=O)O)C(=O)O)CSCC(=O)N[C@@H](Cc2ccccc2)C(=O)N[C@@H](Cc2c[nH]c3ccccc23)C(=O)N[C@@H](CC(=O)O)C1=O` (stereo partly drawn) [compound 2273] ({CH2CO}-FWD[NHexGly]YLNR[NMeThr(3ξ)][Ahp(2)]P[Tle]DC[AEEA][γGlu][AEEA][Aun]-OH; thioether N-14), for which the IC50 (read-out: HC CBA mVISTA IC50) was found to be 0.0336 µM. On to `CCCCCCN1CC(=O)N[C@@H](Cc2ccc(O)cc2)C(=O)N[C@@H](CC(C)C)C(=O)NCC(=O)N[C@@H](CCCNC(=N)N)C(=O)N[C@@H](CCCCN)C(=O)N[C@@H](CCCCC)C(=O)N2CCC[C@H]2C(=O)N[C@@H](C(C)C)C(=O)N[C@@H](CO)C(=O)N[C@H](C(=O)NCC(N)=O)CSCC(=O)N[C@@H](Cc2ccccc2)C(=O)N[C@@H](Cc2ccc(O)cc2)C(=O)N[C@@H](CC(=O)O)C1=O` [Example 1092] ({CH2CO}-FYD[NHexGly]YLGRK[Ahp(2)]PVSCG-NH2; thioether N-14), for which the IC50 under setting [1] was found to be 0.0271 µM. On to `CCCCCCN1CC(=O)N[C@@H](Cc2ccc(O)cc2)C(=O)N[C@@H](CC(C)C)C(=O)N[C@@H](CC(=O)O)C(=O)N[C@@H](CCCNC(=N)N)C(=O)N(C)[C@@H](CO)C(=O)N[C@@H](CCCCC)C(=O)N2CCC[C@H]2C(=O)N[C@@H](C(C)(C)C)C(=O)N[C@@H](CC(N)=O)C(=O)N[C@H](C(=O)N[C@@H](CC(=O)NCCOCCOCC(=O)N[C@@H](CC(=O)O)C(=O)NCCOCCOCC(=O)NCCCCCCCCCCC(=O)O)C(=O)O)CSCC(=O)N[C@@H](Cc2ccccc2)C(=O)N[C@@H](Cc2c[nH]c3ccccc23)C(=O)N[C@@H](CC(=O)O)C1=O` [compound 2066] ({CH2CO}-FWD[NHexGly]YLDR[NMeS][Ahp(2)]P[Tle]NC[βAsp][AEEA]D[AEEA][Aun]-OH; thioether N-14), for which the IC50 (cell-based binding high-content assay, mVISTA, read-out: HC CBA miPr ISTA IC50) was determined as 0.0353 µM. `CCCCCCN1CC(=O)N[C@@H](Cc2ccc(O)cc2)C(=O)N[C@@H](CC(C)C)C(=O)NCC(=O)N[C@@H](CCCNC(=N)N)C(=O)N[C@@H](CC(C)C)C(=O)N[C@@H](CCCCC)C(=O)N2CCC[C@H]2C(=O)N[C@@H](C(C)C)C(=O)N[C@@H](CO)C(=O)N[C@H](C(=O)NCC(N)=O)CSCC(=O)N[C@@H](Cc2ccccc2)C(=O)N[C@@H](Cc2ccc(O)cc2)C(=O)N[C@@H](CC(=O)O)C1=O` [Example 1049] ({CH2CO}-FYD[NHexGly]YLGRL[Ahp(2)]PVSCG-NH2; thioether N-14): the IC50 under setting [1] came out at 0.0095 µM. Consider `CCCCCCN1CC(=O)N[C@@H](Cc2ccc(O)cc2)C(=O)N[C@@H](CCCC)C(=O)N[C@@H](CC(N)=O)C(=O)N[C@@H](CCCNC(=N)N)C(=O)N(C)[C@@H](CCCC)C(=O)N[C@@H](CCCCC)C(=O)N2CCC[C@H]2C(=O)N[C@@H](C(C)C)C(=O)N[C@@H](CC(N)=O)C(=O)N[C@H](C(=O)NCC(=O)O)CSCC(=O)N[C@@H](Cc2ccc3ccccc3c2)C(=O)N[C@@H](Cc2c[nH]c3ccccc23)C(=O)N[C@@H](CC(=O)O)C1=O` [compound 1249] ({CH2CO}-[2Nal]WD[NHexGly]Y[Nle]NR[NMeNle][Ahp(2)]PVNCG-OH; thioether N-14), for which the half-inhibitory concentration (IC50) (cell-based binding high-content assay, mVISTA, the 15th table, read-out: HC CBA mVISTA IC50) is 0.0139 µM.
